{"source": "patent US7612087B2", "about": "“Heterocyclic compounds as inhibitors of beta-lactamases” (Novexel, priority 2002, dated 2009)", "key": {"[1]": {"biological_target": "T1, β-lactamase TEM1 (Escherichia coli, UniProt P62593)", "T1 construct": "The β-lactamases are isolated from bacterial strains which are resistant to penicillins and cephalosporins; endogenous in cells; host or cells: E. coli 250HT21 (natural producer; French-press lysate, 100,000 g supernatant)", "T1 sequence (P62593 24-286 limits assumed)": "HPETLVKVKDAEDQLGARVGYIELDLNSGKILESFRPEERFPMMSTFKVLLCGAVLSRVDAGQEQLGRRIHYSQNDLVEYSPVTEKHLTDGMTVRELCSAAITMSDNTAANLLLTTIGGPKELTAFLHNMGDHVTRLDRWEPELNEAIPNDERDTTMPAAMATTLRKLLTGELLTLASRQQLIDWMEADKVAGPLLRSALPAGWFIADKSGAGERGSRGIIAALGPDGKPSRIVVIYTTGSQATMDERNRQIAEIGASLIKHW", "experiment": "Inhibition of isolated β-lactamase Tem-1 (Nitrocefin hydrolysis)", "format": "biochemical, E.coli 250HT21", "conditions": "100 μM Nitrocefin, 50 mM sodium phosphate buffer pH7.0, 37° C.", "experimental": "(§1) A. Preparation of the β-lactamases Tem-1 and P99\n(§2) The β-lactamases are isolated from bacterial strains which are resistant to penicillins and cephalosporins (Tem1 and P99 are produced by E.coli 250HT21 and E.Cloacae 293HT6 respectively).\n(§3) The bacteria are cultured at 37° C. in heart-brain culture at 37 g/l (DIFCO). They are harvested at the end of the exponential phase, cooled down and centrifuged. The bacterial pellets are taken up in sodium phosphate buffer 50 mM, pH 7.0 and centrifuged again. The bacteria are taken up in two volumes of the same buffer and lyzed using a French-Press maintained at 4° C. After centrifugation for 1 hour at 100,000 g, at 4° C., the supernatants containing the soluble fraction of the bacterial extracts are recovered and frozen at −80° C.\n(§4) The method uses Nitrocefin (OXOID), cephalosporin chromogene as substrate, of which the product hydrolyzed by the B-lactamases is red and absorbs at 485 nm. Beta-lactamase activity is determined kinetically by measurement of the absorbance variation at 485 nm resulting from the hydrolysis of the substrate using a plate spectrophotometer (Spectra Max More Molecular Devices). The experiments are carried out at 37° C. The quantity of enzyme was normalized and the measurements are carried out at initial speed.\n(§5) Two measurements were carried out, without preincubation and with preincubation of the enzyme and inhibitor (5 mn), in order to test the irreversibility of the reaction. The products are tested at 6 or 8 concentrations in duplicate. The reaction mixture contains 100 μM of Nitrocefin and 50 mM sodium phosphate buffer pH7.0.\n(§6) The hydrolysis speeds are measured with and without inhibitor. The concentration of inhibitor which inhibits by 50% the hydrolysis reaction of Nitrocefin by the enzyme (CI50) is determined. The data is processed using GraFit software (Erathycus Software)."}, "[2]": {"biological_target": "T2, β-lactamase P99 (Enterobacter cloacae, UniProt P05364)", "T2 construct": "The β-lactamases are isolated from bacterial strains which are resistant to penicillins and cephalosporins; endogenous in cells; host or cells: Enterobacter cloacae 293HT6 (natural producer; French-press lysate, 100,000 g supernatant)", "T2 sequence (P05364 21-381)": "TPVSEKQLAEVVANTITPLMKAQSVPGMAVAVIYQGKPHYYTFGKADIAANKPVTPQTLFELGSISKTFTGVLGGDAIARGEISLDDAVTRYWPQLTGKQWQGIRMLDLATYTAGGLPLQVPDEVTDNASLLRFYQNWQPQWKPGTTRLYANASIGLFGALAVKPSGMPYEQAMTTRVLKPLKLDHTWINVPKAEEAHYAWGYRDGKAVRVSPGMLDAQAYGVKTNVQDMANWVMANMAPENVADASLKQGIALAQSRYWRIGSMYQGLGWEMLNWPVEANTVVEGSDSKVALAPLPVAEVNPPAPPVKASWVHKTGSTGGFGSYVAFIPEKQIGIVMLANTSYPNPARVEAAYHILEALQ", "experiment": "biochemical", "conditions": "100 μM Nitrocefin, 50 mM sodium phosphate buffer pH7.0, 37° C.; read-out: IC50 nM/P99", "experimental": "as §1, §2, §3, §4, §5, §6"}}, "note": "Where a name gives a salt, the structure may show the parent alone.", "data": [{"molecule": "6-benzoyl—N—[methyl(phenylmethyl)]-7-oxo-1,6-diazabicyclo[3.2.1]octane-2-carboxamide [Example 29e]", "values": [{"measurement": "IC50", "setting": "[1]", "value": 4200, "unit": "nM"}, {"measurement": "IC50", "setting": "[2]", "value": 6300, "unit": "nM"}]}, {"molecule": "O=C(O)CC[C@@H]1CCN2C[C@H]1OC2=O", "note": "(relative stereo) [Example 1a, cis-7-oxo-6-oxa-1-azabicyclo[3.2.1]octane-4-propanoic acid]", "values": [{"measurement": "IC50", "setting": "[1]", "value": 700, "unit": "nM"}, {"measurement": "IC50", "setting": "[2]", "value": "> 10000", "unit": "nM"}]}, {"molecule": "O=C(C[C@@H]1CCN2C[C@@H]1OC2=O)OC(c1ccccc1)c1ccccc1", "note": "(relative stereo) [Example 2, Trans diphenylmethyl 7-oxo-6-oxa-1-azabicyclo[3.2.1]octan-4-acetate]", "values": [{"measurement": "IC50", "setting": "[1]", "value": 462, "unit": "nM"}]}, {"molecule": "O=C(O)C[C@@H]1CCN2C[C@@H]1OC2=O", "note": "(relative stereo) [Example 2a, trans-7-oxo-6-oxa-1-azabicyclo[3.2.1]octan-4-acetic acid]", "values": [{"measurement": "IC50", "setting": "[1]", "value": 6730, "unit": "nM"}]}, {"molecule": "O=C(C[C@@H]1CCN2C[C@H]1OC2=O)OC(c1ccccc1)c1ccccc1", "note": "(relative stereo) [Example 3, cis diphenylmethyl 7-oxo-6-oxa-1-azabicyclo[3.2.1]octan-4-acetate]", "values": [{"measurement": "IC50", "setting": "[1]", "value": 590, "unit": "nM"}, {"measurement": "IC50", "setting": "[2]", "value": 9800, "unit": "nM"}]}, {"molecule": "O=C(O)C[C@@H]1CCN2C[C@H]1OC2=O", "note": "(relative stereo) [Example 3a, cis-7-oxo-6-oxa-1-azabicyclo[3.2.1]octan-4-acetic acid]", "values": [{"measurement": "IC50", "setting": "[1]", "value": 4400, "unit": "nM"}]}, {"molecule": "COC(=O)C[C@@H]1CCN2C[C@H]1OC2=O", "note": "(relative stereo) [Example 3b, cis methyl 7-oxo-6-oxa-1-azabicyclo[3.2.1]octan-4-acetate]", "values": [{"measurement": "IC50", "setting": "[1]", "value": 2010, "unit": "nM"}]}, {"molecule": "N#CC[C@@H]1CCN2C[C@H]1OC2=O", "note": "(relative stereo) [Example 4, cis-7-oxo-6-oxa-1-azabicyclo[3.2.1]octan-4-acetonitrile]", "values": [{"measurement": "IC50", "setting": "[1]", "value": 2710, "unit": "nM"}]}, {"molecule": "O=C(OCc1ccccc1)[C@H]1C[C@@H]2CN1C(=O)N2C(=O)c1ccccc1", "note": "(relative stereo) [Example 7a, trans phenylmethyl 3-benzoyl-2-oxo-1,3-diazabicyclo[2.2.1]heptane-6-carboxylate]", "values": [{"measurement": "IC50", "setting": "[1]", "value": 55, "unit": "nM"}, {"measurement": "IC50", "setting": "[2]", "value": 17, "unit": "nM"}]}, {"molecule": "O=C(OCc1ccccc1)[C@H]1C[C@@H]2CN1C(=O)N2S(=O)(=O)c1ccccc1", "note": "(relative stereo) [Example 8, trans phenylmethyl 2-oxo-3-(phenylsulphonyl)-1,3-diazabicyclo[2.2.1]heptane-6-carboxylate]", "values": [{"measurement": "IC50", "setting": "[1]", "value": 1400, "unit": "nM"}, {"measurement": "IC50", "setting": "[2]", "value": 62, "unit": "nM"}]}, {"molecule": "C[C@@]12C[C@H](C(=O)OCc3ccccc3)N(C1)C(=O)N2C(=O)c1ccccc1", "note": "(relative stereo) [Example 9, trans phenylmethyl 3-benzoyl-4-methyl-2-oxo-1,3-diazabicyclo[2.2.1]heptane-6-carboxylate]", "values": [{"measurement": "IC50", "setting": "[1]", "value": 8500, "unit": "nM"}, {"measurement": "IC50", "setting": "[2]", "value": 630, "unit": "nM"}]}, {"molecule": "O=C(OCc1ccccc1)[C@@H]1C[C@@H]2CN1C(=O)N2OS(=O)(=O)O", "note": "(relative stereo) [Example 10, 1-propenyltriphenylphosphonium salt of trans phenylmethyl 2-oxo-3-(sulphooxy)-1,3-diazabicyclo[2.2.1]heptane-6-carboxylate]", "values": [{"measurement": "IC50", "setting": "[1]", "value": 0.26, "unit": "nM"}, {"measurement": "IC50", "setting": "[2]", "value": 1.5, "unit": "nM"}]}, {"molecule": "COC(=O)[C@@H]1CC[C@@H]2CN1C(=O)O2", "note": "(relative stereo) [Example 26c, trans methyl 7-oxo-6-oxa-1-azabicyclo[3.2.1]octane-2-carboxylate]", "values": [{"measurement": "IC50", "setting": "[1]", "value": 1100, "unit": "nM"}, {"measurement": "IC50", "setting": "[2]", "value": 7000, "unit": "nM"}]}, {"molecule": "O=C(NCc1ccccc1)[C@@H]1CC[C@@H]2CN1C(=O)N2C(=O)c1ccccc1", "note": "(relative stereo) [Example 29d, trans-6-benzoyl-7-oxo-N-(phenylmethyl)-1,6-diazabicyclo[3.2.1]octane-2-carboxamide]", "values": [{"measurement": "IC50", "setting": "[1]", "value": 9500, "unit": "nM"}, {"measurement": "IC50", "setting": "[2]", "value": 2000, "unit": "nM"}]}, {"molecule": "O=C(c1ccccc1)N1C(=O)N2CCC1C2", "note": "(centres unmarked) [Example 5, 3-benzoyl-1,3-diazabicyclo[2.2.1]heptan-2-one]", "values": [{"measurement": "IC50", "setting": "[1]", "value": 1010, "unit": "nM"}]}, {"molecule": "O=C(c1ccccc1)N1C(=O)N2CCCC1C2", "note": "(centres unmarked) [Example 14, 6-benzoyl-1,6-diazabicyclo[3.2.1]octan-7-one]", "values": [{"measurement": "IC50", "setting": "[1]", "value": 6400, "unit": "nM"}]}, {"molecule": "Cc1ccc(S(=O)(=O)ON2C(=O)N3CCCC2C3)cc1", "note": "(centres unmarked) [Example 19e, 6-[[(4-methylphenyl)sulphonyl]oxy]-1,6-diazabicyclo[3.2.1]octan-7-one]", "values": [{"measurement": "IC50", "setting": "[1]", "value": 11, "unit": "nM"}]}, {"molecule": "CS(=O)(=O)ON1C(=O)N2CCCC1C2", "note": "(centres unmarked) [Example 19f, 6-[(methylsulphonyl)oxy]-1,6-diazabicyclo[3.2.1]octan-7-one]", "values": [{"measurement": "IC50", "setting": "[1]", "value": 110, "unit": "nM"}]}, {"molecule": "O=C1N2CCCC(C2)N1OS(=O)(=O)c1ccc([N+](=O)[O-])cc1", "note": "(centres unmarked) [Example 19g]", "values": [{"measurement": "IC50", "setting": "[1]", "value": 29, "unit": "nM"}]}, {"molecule": "O=C1OC2C=CCN1C2", "note": "(centres unmarked) [Example 22, 6-oxa-1-azabicyclo[3.2.1]oct-3-en-7-one]", "values": [{"measurement": "IC50", "setting": "[1]", "value": 5100, "unit": "nM"}]}, {"molecule": "O=C(O)C1CCC2CN1C(=O)O2", "note": "(stereo not drawn) [Example 26b, trans-7-oxo-6-oxa-1-azabicyclo[3.2.1.]octane-2 carboxylic acid]", "values": [{"measurement": "IC50", "setting": "[1]", "value": 4900, "unit": "nM"}]}, {"molecule": "O=C(OCc1ccccc1)C1CCC2CN1C(=O)N2OS(=O)(=O)O", "note": "(stereo not drawn) [Example 28b, Sodium salt of trans phenylmethyl 7-oxo-6-(sulphooxy)-1,6-diazabicyclo[3.2.1]octane-2-carboxylate]", "values": [{"measurement": "IC50", "setting": "[1]", "value": 9.5, "unit": "nM"}, {"measurement": "IC50", "setting": "[2]", "value": 12, "unit": "nM"}]}, {"molecule": "O=C(OCc1ccccc1)C1CCC2CN1C(=O)N2OS(=O)(=O)c1cccs1", "note": "(stereo not drawn) [Example 28d, trans pheylmethyl 7-oxo-6-[(2-thienylsulphonyl)oxy]-1,6-diazabicyclo[3.2.1]octane-2-carboxylate]", "values": [{"measurement": "IC50", "setting": "[1]", "value": 1.3, "unit": "nM"}, {"measurement": "IC50", "setting": "[2]", "value": 390, "unit": "nM"}]}, {"molecule": "O=C(O)C1CCC2CN1C(=O)N2C(=O)c1ccccc1", "note": "(stereo not drawn) [Example 29b, trans-6-benzoyl-7-oxo-1,6-iazabicyclo[3.2.1]octane-2-carboxylic acid]", "values": [{"measurement": "IC50", "setting": "[1]", "value": 460, "unit": "nM"}, {"measurement": "IC50", "setting": "[2]", "value": 4200, "unit": "nM"}]}, {"molecule": "O=C(c1ccccc1)N1C(=O)N2CC1CCC2CO", "note": "(centres unmarked) [Example 29f, 6-benzoyl-2-(hydroxymethyl)-1,6-diazabicyclo[3.2.1]octan-7-one]", "values": [{"measurement": "IC50", "setting": "[1]", "value": 5200, "unit": "nM"}]}, {"molecule": "C=CCOC(=O)N1C(=O)N2CC1CCC2C(=O)OCc1ccc([N+](=O)[O-])cc1", "note": "(stereo not drawn) [Example 31, trans (4-nitrophenyl)methyl and 2-propenyl 7-oxo-1,6-diazabicyclo[3.2.1]octane-2,6-dicarboxylate]", "values": [{"measurement": "IC50", "setting": "[1]", "value": 5700, "unit": "nM"}]}, {"molecule": "COC1=CC2CN(C1)C(=O)N2OS(=O)(=O)O", "note": "(centres unmarked) [Example 52, Sodium salt of 3-methoxy-6-(sulphooxy)-1,6-diazabicyclo[3.2.1]oct-3-in-7-one]", "values": [{"measurement": "IC50", "setting": "[1]", "value": 11, "unit": "nM"}, {"measurement": "IC50", "setting": "[2]", "value": 4600, "unit": "nM"}]}, {"molecule": "O=C1N2CC=CC(C2)N1OS(=O)(=O)O", "note": "(centres unmarked) [Example 53, Sodium salt of 6-(sulphooxy)-1,6-diazabicyclo[3.2.1]oct-3-in-7-one]", "values": [{"measurement": "IC50", "setting": "[1]", "value": 15, "unit": "nM"}, {"measurement": "IC50", "setting": "[2]", "value": 5900, "unit": "nM"}]}, {"molecule": "O=C1N2CCCC(C2)N1OS(=O)(=O)O", "note": "(centres unmarked) [Example 54, Sodium salt of 6-(sulphooxy)-1,6-diazabicyclo[3.2.1]octan-7-one]", "values": [{"measurement": "IC50", "setting": "[1]", "value": 3100, "unit": "nM"}]}, {"molecule": "trans phenylmethyl 6-(2-hydroxy-2-oxoethoxy)-7-oxo-1,6-diazabicyclo[3.2.1]octane-2-carboxylate [Example 28e]", "values": [{"measurement": "IC50", "setting": "[1]", "value": 52, "unit": "nM"}]}]}
